The test deals with Serine/threonine-protein kinase TAO3 (Homo sapiens, UniProt Q9H2K8). The test is described as follows: Inhibition of TAOK3.
Sequence of Serine/threonine-protein kinase TAO3 (Q9H2K8 whole entry): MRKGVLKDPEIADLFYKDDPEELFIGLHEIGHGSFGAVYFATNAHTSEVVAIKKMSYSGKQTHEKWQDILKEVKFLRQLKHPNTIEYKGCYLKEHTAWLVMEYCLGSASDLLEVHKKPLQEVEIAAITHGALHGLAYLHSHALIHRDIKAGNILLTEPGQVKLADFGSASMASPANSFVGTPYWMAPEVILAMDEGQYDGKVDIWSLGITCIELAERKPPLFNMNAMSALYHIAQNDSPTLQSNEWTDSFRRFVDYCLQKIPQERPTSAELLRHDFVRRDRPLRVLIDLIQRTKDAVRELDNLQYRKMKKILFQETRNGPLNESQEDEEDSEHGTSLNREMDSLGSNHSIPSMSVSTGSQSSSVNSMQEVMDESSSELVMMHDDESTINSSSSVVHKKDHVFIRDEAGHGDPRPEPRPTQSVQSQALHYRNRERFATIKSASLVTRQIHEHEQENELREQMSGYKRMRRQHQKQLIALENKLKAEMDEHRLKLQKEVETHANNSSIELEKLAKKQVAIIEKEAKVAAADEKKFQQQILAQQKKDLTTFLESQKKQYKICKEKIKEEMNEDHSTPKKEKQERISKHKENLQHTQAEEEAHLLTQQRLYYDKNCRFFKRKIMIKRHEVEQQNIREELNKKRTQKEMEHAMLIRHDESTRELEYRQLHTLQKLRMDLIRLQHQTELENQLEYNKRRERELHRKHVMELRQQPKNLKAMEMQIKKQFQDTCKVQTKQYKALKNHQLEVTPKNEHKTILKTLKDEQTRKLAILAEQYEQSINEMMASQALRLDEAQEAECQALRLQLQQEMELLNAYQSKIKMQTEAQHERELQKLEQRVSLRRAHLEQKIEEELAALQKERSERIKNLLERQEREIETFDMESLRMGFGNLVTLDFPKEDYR

For `C[C@@H]1CCC(N2CC[C@]3(CN(C(=O)c4cc5ccc(F)cc5[nH]4)c4ccccc43)C2)CN1` (stereo partly specified), the IC50 is > 30 µM.

For the origin of these results see ChEMBL document CHEMBL1933021, “Novel and selective spiroindoline-based inhibitors of Sky kinase” (Bioorg Med Chem Lett, 2012).
